# Assay results reported in patent US4772586A, “Novel derivatives of arginine vasopressin antagonists” (Medical College of Ohio, priority 1986, dated 1988).
# *1 amine or outer side, *2 acyl side, *3 side chain or, on linkers, in order; H or OH if unused. Where a SMILES comes first, the peptide text is derived from it. Bridges are numbered along the chain shown (N, C = ends). [ ]: non-standard residue; d: D form. The star is where a group is joined. Ethylenediamine = C(CN[*:2])N[*:1]; X1 = O=C(CC1(S[*:2])CCCCC1)[*:1]; NHCH2CH2OH = OCCN*; NHBu = CCCCN*
# What was measured:
# [1] = system: antidiuretic response to arginine vasopressin; assay: Antagonism of the antidiuretic response to arginine vasopressin (Anti-ADH); type: in vivo, rats; details: for Anti-ADH pA2: Table 1, estimated in vivo pA2 = negative log of effective dose divided by volume of distribution (67 ml/kg); for Anti-ADH Potency pA2: estimated in vivo pA2
# Experimental: Activity as antidiuretic agonists was determined by intravenous injection of the compounds being evaluated in ethanol-anesthesized water-loaded rats in accordance with Sawyer, Endocrinology, vol. 63 (1958) at 694. Antagonism of the antidiuretic response to subsequent injections of arginine vasopressin was tested by the method of Sawyer et al., Science, vol. 212 (1981) at 49.
# (§1) Antagonistic potencies were determined and expressed as "effective doses" and pA2 values. The "effective dose" is defined as the dose (in nanomoles per kilogram) that reduces the response seen from 2x units of agonist injected 20 min after the dose of antagonist to the response with 1x units of agonist. Estimated in vivo "pA2 " values represent the negative logarithms of the effective doses, divided by the estimated volume of distribution (67 ml/kg).
# [2] = system: vasopressor response to arginine vasopressin; assay: Antagonism to the vasopressor response (Anti-VP); type: in vivo; details: estimated in vivo pA2; for Anti-VP pA2: Table 1
# Experimental: Antagonism to the vasopressor response was estimated in accordance with Dyckes et al., J. Med. Chem., vol. 17 (1974) at 969. The values are expressed as pA2 values, defined as in Schild et al., Br. J. Pharmacol., vol. 2 (1947) at 189.
# as §1
SMILES,Anti-ADH pA2 [1],Anti-VP pA2 [2],Anti-ADH Potency pA2 ([1]; Table 4),"Anti-VP Potency pA2 ([2]; Table 4, ^+ = mixed)",also measured
"CC(C)[C@@H]1NC(=O)[C@H](Cc2ccccc2)NC(=O)[C@@H](Cc2ccccc2)NC(=O)CC2(CCCCC2)SSC[C@@H](C(=O)N2CCC[C@H]2C(=O)N[C@@H](CCCNC(=N)N)C(=O)NCC(N)=O)NC(=O)[C@H](CC(N)=O)NC1=O [d(CH2) 5 [D-Phe^2]VAVP, [1-(beta-mercapto-beta,beta-cyclopentamethylenepropionic acid), 2-D-phenylalanine, 4-valine]-arginine vasopressin, reference compound] ([dF]FVNCPRG-NH2; linker N-5 via X1)",8.06 ± 0.09,8.06 ± 0.03,,,
"CC[C@H](C)[C@@H]1NC(=O)[C@H](Cc2ccccc2)NC(=O)[C@@H](Cc2ccccc2)NC(=O)CC2(CCCCC2)SSC[C@@H](C(=O)N2CCC[C@H]2C(=O)N[C@@H](CCCNC(=N)N)C(=O)NCC(=O)NCCN)NC(=O)[C@H](CC(N)=O)NC1=O [[1-(beta-mercapto-beta,beta-cyclopentamethylenepropionic acid), 2-D-phenylalanine, 4-isoleucine, 9-glycine-N-(beta-amino)ethylamide]-arginine vasopressin] ([dF]FINCPRG-Ethylenediamine; linker N-5 via X1)",,,8.10 ± 0.10,7.58 ± 0.07,
"CC[C@H](C)[C@@H]1NC(=O)[C@H](Cc2ccccc2)NC(=O)[C@@H](Cc2ccccc2)NC(=O)CC2(CCCCC2)SSC[C@@H](C(=O)N2CCC[C@H]2C(=O)N[C@@H](CCCNC(=N)N)C(=O)NCC(=O)NCC(N)=O)NC(=O)[C@H](CC(N)=O)NC1=O [[1-(beta-mercapto-beta,beta-cyclopentamethylenepropionic acid), 2-D-phenylalanine, 4-isoleucine, 9-glycine]-arginine vasopressinyl glycinamide] ([dF]FINCPRGG-NH2; linker N-5 via X1)",,,7.83 ± 0.04,7.72,
"CCCCNC(=O)[C@H](CCCNC(=N)N)NC(=O)[C@@H]1CCCN1C(=O)[C@@H]1CSSC2(CCCCC2)CC(=O)N[C@H](Cc2ccc(OCC)cc2)C(=O)N[C@@H](Cc2ccccc2)C(=O)N[C@@H]([C@@H](C)CC)C(=O)N[C@@H](CC(N)=O)C(=O)N1 [[1-beta-mercapto-beta,beta-cyclopentamethylenepropionic acid), 2-(D-O-ethyl)tyrosine, 4-isoleucine, 8-arginine-N-(n-butyl)amide, 9-desglycinamide] vasopressin] ([dY](Et)FINCPR-NHBu; linker N-5 via X1)",,,7.62 ± 0.09,7.51 ± 0.08,
"CCOc1ccc(C[C@H]2NC(=O)CC3(CCCCC3)SSC[C@@H](C(=O)N3CCC[C@H]3C(=O)N[C@@H](CCCNC(=N)N)C(=O)NCCO)NC(=O)[C@H](CC(N)=O)NC(=O)[C@H]([C@@H](C)CC)NC(=O)[C@H](Cc3ccccc3)NC2=O)cc1 [[1-(beta-mercapto-beta,beta-cyclopentamethylenepropionic acid), 2-D-(O-ethyl)tyrosine, 4-isoleucine, 8-arginine-N-(beta-hydroxy)ethylamide, 9-desglycinamide] vasopressin] ([dY](Et)FINCPR-NHCH2CH2OH; linker N-5 via X1)",,,7.82 ± 0.06,7.89 ± 0.09,
"CC[C@H](C)[C@@H]1NC(=O)[C@H](Cc2ccccc2)NC(=O)[C@@H](Cc2ccccc2)NC(=O)CC2(CCCCC2)SSC[C@@H](C(=O)N2CCC[C@H]2C(=O)N[C@@H](CCCNC(=N)N)C(=O)N[C@H](C)C(N)=O)NC(=O)[C@H](CC(N)=O)NC1=O [D-Ala(NH2), [1-(beta-mercapto-beta,beta-cyclopentamethylenepropionic acid), 2-D-phenylalanine, 4-isoleucine, 9-D-alaninamide]-arginine vasopressin] ([dF]FINCPR[dA]-NH2; linker N-5 via X1)",,,,,Anti-ADH Potency pA2 ([1]; Table 2): 7.38 ± 0.08; Anti-VP Potency pA2 ([2]; Table 2): 7.55 ± 0.05
"CCOc1ccc(C[C@H]2NC(=O)CC3(CCCCC3)SSC[C@@H](C(=O)N3CCC[C@H]3C(=O)N[C@@H](CCCNC(=N)N)C(=O)N[C@@H](C)C(=O)NC)NC(=O)[C@H](CC(N)=O)NC(=O)[C@H](C(C)C)NC(=O)[C@H](Cc3ccccc3)NC2=O)cc1 [[1-(beta-mercapto-beta,beta-cyclopentamethylenepropionic acid), 2-D-(O-ethyl)tyrosine, 4-valine, 9-alanine-N-methylamide]-arginine vasopressin] ([dY](Et)FVNCPRA-NHMe; linker N-5 via X1)",,,7.92 ± 0.06,8.17 ± 0.04,
"CCOc1ccc(C[C@H]2NC(=O)CC3(CCCCC3)SSC[C@@H](C(=O)N3CCC[C@H]3C(=O)N[C@@H](CCCNC(=N)N)C(=O)O)NC(=O)[C@H](CC(N)=O)NC(=O)[C@H](C(C)C)NC(=O)[C@H](Cc3ccccc3)NC2=O)cc1 [desGly(NH2)^9 d(CH2)5 [D-Tyr(Et)^2]VAVP, [1-(beta-mercapto-beta,beta-cyclopentamethylenepropionic acid), 2-D-(O-ethyl)tyrosine, 4-valine, 9-desglycinamide]-arginine vasopressin] ([dY](Et)FVNCPR-OH; linker N-5 via X1)",7.78 ± 0.03,7.77 ± 0.02,,,
"CC[C@H](C)[C@@H]1NC(=O)[C@H](Cc2ccccc2)NC(=O)[C@@H](Cc2ccccc2)NC(=O)CC2(CCCCC2)SSC[C@@H](C(=O)N2CCC[C@H]2C(=O)N[C@@H](CCCNC(=N)N)C(=O)NCCN)NC(=O)[C@H](CC(N)=O)NC1=O [[1-(beta-mercapto-beta,beta-cyclopentamethylenepropionic acid), 2-D-phenylalanine, 4-isoleucine, 8-arginine-N-(beta-amino)ethylamide, 9-desglycinamide] vasopressin] ([dF]FINCPR-Ethylenediamine; linker N-5 via X1)",,,8.11 ± 0.06,7.89 ± 0.04,
"COc1ccc(C[C@@H]2NC(=O)CC3(CCCCC3)SSC[C@@H](C(=O)N3CCC[C@H]3C(=O)N[C@@H](CCCNC(=N)N)C(=O)NCCN)NC(=O)[C@H](CC(N)=O)NC(=O)[C@H](CCC(N)=O)NC(=O)[C@H](Cc3ccccc3)NC2=O)cc1 [[1(beta-mercapto-beta,beta-cyclopentamethylenepropionic acid), 2-(O-methyl)tyrosine, 8-arginine-N-(beta-amino)ethylamide, 9-desglycinamide] vasopressin] (Y(Me)FQNCPR-Ethylenediamine; linker N-5 via X1)",,,~ 6.3,8.75 ± 0.06,
COc1ccc(C[C@@H]2NC(=O)CC3(CCCCC3)SSC[C@@H](C(=O)N3CCC[C@H]3C(=O)N[C@@H](CCCNC(=N)N)C(=O)O)NC(=O)[C@H](CC(N)=O)NC(=O)[C@H](CCC(N)=O)NC(=O)[C@H](Cc3ccccc3)NC2=O)cc1 [desGly(NH2)^9 d(CH2)5 [Tyr(Me)^2]AVP] (Y(Me)FQNCPR-OH; linker N-5 via X1),~ 5.4,8.46 ± 0.05,,,
"CC[C@H](C)[C@@H]1NC(=O)[C@H](Cc2ccccc2)NC(=O)[C@@H](Cc2ccccc2)NC(=O)CC2(CCCCC2)SSC[C@@H](C(=O)N2CCC[C@H]2C(=O)N[C@@H](CCCNC(=N)N)C(=O)NCCO)NC(=O)[C@H](CC(N)=O)NC1=O [[1-(beta-mercapto-beta,beta-cyclopentamethylenepropionic acid), 2-D-phenylalanine, 4-isoleucine, 8-arginine-N-(beta-hydroxy)ethylamide, 9-desglycinamide] vasopressin] ([dF]FINCPR-NHCH2CH2OH; linker N-5 via X1)",,,8.17 ± 0.10,7.45 ± 0.12,
"CCOc1ccc(C[C@H]2NC(=O)CC3(CCCCC3)SSC[C@@H](C(=O)N3CCC[C@H]3C(=O)N[C@@H](CCCNC(=N)N)C(=O)NCCN)NC(=O)[C@H](CC(N)=O)NC(=O)[C@H]([C@@H](C)CC)NC(=O)[C@H](Cc3ccccc3)NC2=O)cc1 [[1-(beta-mercapto-beta,beta-cyclopentamethylenepropionic acid), 2-D-(O-ethyl)tyrosine, 4-isoleucine, 8-arginine-N-(beta-amino)ethylamide, 9-desglycinamide] vasopressin] ([dY](Et)FINCPR-Ethylenediamine; linker N-5 via X1)",,,8.00 ± 0.12,8.33 ± 0.06,
"CCOc1ccc(C[C@H]2NC(=O)CC3(CCCCC3)SSC[C@@H](C(=O)N3CCC[C@H]3C(=O)N[C@@H](CCCNC(=N)N)C(=O)NCC(N)=O)NC(=O)[C@H](CC(N)=O)NC(=O)[C@H](C(C)C)NC(=O)[C@H](Cc3ccccc3)NC2=O)cc1 [d(CH2)5 [D-Tyr(Et)^2]VAVP, [1-(beta-mercapto-beta,beta-cyclopentamethylenepropionic acid), 2-D-(O-ethyl)tyrosine, 4-valine]-arginine vasopressin, reference compound] ([dY](Et)FVNCPRG-NH2; linker N-5 via X1)",7.81 ± 0.07,8.22 ± 0.12,,,
"CC[C@H](C)[C@@H]1NC(=O)[C@H](Cc2ccccc2)NC(=O)[C@@H](Cc2ccccc2)NC(=O)CC2(CCCCC2)SSC[C@@H](C(=O)N2CCC[C@H]2C(=O)N[C@@H](CCCNC(=N)N)C(=O)NCC(N)=O)NC(=O)[C@H](CC(N)=O)NC1=O [d(CH2)5 [D-Phe^2,Ile^ 4]AVP, [1-(beta-mercapto-beta,beta-cyclopentamethylenepropionic acid), 2-D-phenylalanine, 4-isoleucine]-arginine vasopressin, reference compound] ([dF]FINCPRG-NH2; linker N-5 via X1)",8.24 ± 0.08,7.86 ± 0.05,,,
